Consider 30 compounds from patent US10208059B2, “Heterocyclic modulators of HIF activity for treatment of disease” (Board of Regents, University of Texas System, priority 2012, dated 2019).

The structures appear in SMILES notation. pIC50: −log10 of the molar value. Bounds are passed on as bounds.

The subject of this test is 293T-HRE-GFP-luc cells. The test can be described thus: Cell-based reporter assay for IC50 determinations. The note with it: hypoxia 6 hrs (1% O2), luminescence, read-out: IC50 Classification. A digest of the protocol: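 Cells carrying an HRE-driven GFP-luciferase reporter, seeded at 12,000/well and held overnight, then given 1:3 serial compound dilutions (DMSO, further diluted 1:50 in medium). After 30 min in normoxia, plates held 6 h in hypoxia (1% O2, 37 °C); luciferase luminescence read, IC50 by four-parameter logistic fit.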
On the technique in general: A reporter such as luciferase makes a cellular process visible.

What is called pIC50 is the IC50 on a negative log10 scale, so that one unit is a factor of ten. Take `Cc1nc(-c2nc(-c3ccc(OC(F)(F)F)cc3)no2)nn1Cc1cccc(N2CCN(S(C)(=O)=O)CC2)c1` [Example 82, 1-Methanesulfonyl-4-{3-[(5-methyl-3-{3-[4-(trifluoromethoxy)phenyl]-1,2,4-oxadiazol-5-yl}-1H-1,2,4-triazol-1-yl)methyl]phenyl}piperazine]: the negative-log IC50 (pIC50) is greater than 7.00. For the compound `Cc1nc(-c2nc(-c3ccc(OC(F)(F)F)cc3)no2)nn1Cc1cccc(N2CCN(C(=O)CO)CC2)c1` [Example 83, 2-Hydroxy-1-(4-{3-[(5-methyl-3-{3-[4-(trifluoromethoxy)phenyl]-1,2,4-oxadiazol-5-yl}-1H-1,2,4-triazol-1-yl)methyl]phenyl}piperazin-1-yl)ethan-1-one], the pIC50 was greater than 7.00.

For the compound `C=Cc1cccc(Cn2nc(-c3nc(-c4ccc(OC(F)(F)F)cc4)no3)nc2C)c1` [Example 84, 5-{1-[(3-Ethenylphenyl)methyl]-5-methyl-1H-1,2,4-triazol-3-yl}-3-[4-(trifluoromethoxy)phenyl]-1,2,4-oxadiazole], the pIC50 was 6.00 to 7.00. Turning to `Cc1nc(-c2nc(-c3ccc(OC(F)(F)F)cc3)no2)nn1Cc1cccc(C(O)CO)c1` (stereo not drawn) [Example 85, 1-{3-[(5-Methyl-3-{3-[4-(trifluoromethoxy)phenyl]-1,2,4-oxadiazol-5-yl}-1H-1,2,4-triazol-1-yl)methyl]phenyl}ethane-1,2-diol], the pIC50 is greater than 7.00. Turning to `Cc1nc(-c2nc(-c3ccc(OC(F)(F)F)cc3)no2)nn1Cc1cccc(OCC(O)CO)c1` (stereo not drawn) [Example 86, 3-{3-[(5-methyl-3-{3-[4-(trifluoromethoxy)phenyl]-1,2,4-oxadiazol-5-yl}-1H-1,2,4-triazol-1-yl)methyl]phenoxy}propane-1,2-diol], the pIC50 was greater than 7.00. Consider `Cc1nc(-c2nc(-c3ccc(OC(F)(F)F)cc3)cs2)nn1Cc1ccnc(N2CCN(C)CC2)c1` [Example 87, 1-Methyl-4-{4-[(5-methyl-3-{4-[4-(trifluoromethoxy)phenyl]-1,3-thiazol-2-yl}-1H-1,2,4-triazol-1-yl)methyl]pyridin-2-yl}piperazine], for which the pIC50 was greater than 7.00. The figure for `Cc1nc(-c2nc(-c3ccc(OC(F)(F)F)cc3)cs2)nn1Cc1cccc(S(C)(=O)=O)c1` [Example 88, 1-[(3-Methanesulfonylphenyl)methyl]-5-methyl-3-{4-[4-(trifluoromethoxy)phenyl]-1,3-thiazol-2-yl}-1H-1,2,4-triazole] is 6.00 to 7.00; for `Cc1nc(-c2nc(-c3ccc(OC(F)(F)F)cc3)cs2)nn1Cc1cccc(C(=O)N(C)C)c1` [Example 89, N,N-Dimethyl-3-[(5-methyl-3-{4-[4-(trifluoromethoxy)phenyl]-1,3-thiazol-2-yl}-1H-1,2,4-triazol-1-yl)methyl]benzamide] it is 6.00 to 7.00. The figure for `COCCOc1cccc(Cn2nc(-c3nc(-c4ccc(OC(F)(F)F)cc4)cs3)nc2C)c1` [Example 90, 1-{[3-(2-Methoxyethoxy)phenyl]methyl}-5-methyl-3-{4-[4-(trifluoromethoxy)phenyl]-1,3-thiazol-2-yl}-1H-1,2,4-triazole] is 6.00 to 7.00; for `Cc1nc(-c2nc(-c3ccc(OC(F)(F)F)cc3)cs2)nn1Cc1cccc(OCCO)c1` [Example 91, 2-{3-[(5-Methyl-3-{4-[4-(trifluoromethoxy)phenyl]-1,3-thiazol-2-yl}-1H-1,2,4-triazol-1-yl)methyl]phenoxy}ethan-1-ol] it is 6.00 to 7.00; for `Cc1nc(-c2ncc(-c3ccc(OC(F)(F)F)cc3)o2)nn1Cc1ccnc(N2CCN(C)CC2)c1` [Example 92, 1-Methyl-4-{4-[(5-methyl-3-{5-[4-(trifluoromethoxy)phenyl]-1,3-oxazol-2-yl}-1H-1,2,4-triazol-1-yl)methyl]pyridin-2-yl}piperazine] it is greater than 7.00.

Take `Cc1nc(-c2ncc(-c3ccc(OC(F)(F)F)cc3)o2)nn1Cc1ccnc(N2CCOCC2)c1` [Example 93, 4-{4-[(5-methyl-3-{5-[4-(trifluoromethoxy)phenyl]-1,3-oxazol-2-yl}-1H-1,2,4-triazol-1-yl)methyl]pyridin-2-yl}morpholine]: the pIC50 was 6.00 to 7.00. For `Cc1nc(-c2cc(-c3ccc(OC(F)(F)F)cc3)no2)nn1Cc1cccc(N2CCC(S(C)(=O)=O)CC2)c1` [Example 94, 5-(5-Methyl-1-(3-(4-(methylsulfonyl)piperidin-1-yl)benzyl)-1H-1,2,4-triazol-3-yl)-3-(4-(trifluoromethoxy)phenyl)isoxazole], the pIC50 is greater than 7.00. The figure for `Cc1nc(-c2cc(-c3ccc(OC(F)(F)F)cc3)no2)nn1Cc1ccnc(N2CCC(S(C)(=O)=O)CC2)c1` [Example 95, 5-(5-Methyl-1-((2-(4-(methylsulfonyl)piperidin-1-yl)pyridin-4-yl)methyl)-1H-1,2,4-triazol-3-yl)-3-(4-(trifluoromethoxy)phenyl)isoxazole] is greater than 7.00. The figure for `Cc1nc(-c2cc(-c3ccc(OC(F)(F)F)cc3)on2)nn1Cc1cccc(N2CCC(S(C)(=O)=O)CC2)c1` [Example 96, 3-(5-Methyl-1-(3-(4-(methylsulfonyl)piperidin-1-yl)benzyl)-1H-1,2,4-triazol-3-yl)-5-(4-(trifluoromethoxy)phenyl)isoxazole] is greater than 7.00; for `Cc1nc(-c2cc(-c3ccc(OC(F)(F)F)cc3)on2)nn1Cc1ccnc(N2CCC(S(C)(=O)=O)CC2)c1` [Example 97, 3-(5-Methyl-1-((2-(4-(methylsulfonyl)piperidin-1-yl)pyridin-4-yl)methyl)-1H-1,2,4-triazol-3-yl)-5-(4-(trifluoromethoxy)phenyl)isoxazole] it is 6.00 to 7.00. As to `Cc1nc(-c2nnc(-c3ccc(C(C)(C)C)cc3)o2)nn1Cc1cccc(N2CCOCC2)c1` [Example 98, 4-(3-((3-(5-(4-(tert-butyl)phenyl)-1,3,4-oxadiazol-2-yl)-5-methyl-1H-1,2,4-triazol-1-yl)methyl)phenyl)morpholine], the pIC50 is greater than 7.00. In the case of `Cc1nc(-c2nc(-c3ccc(OC(F)(F)F)cc3)no2)nn1Cc1cncnc1` [Example 99, 5-(5-methyl-1-(pyrimidin-5-ylmethyl)-1H-1,2,4-triazol-3-yl)-3-(4-(trifluoromethoxy)phenyl)-1,2,4-oxadiazole] it was 5.00 to 6.00; in that of `Cc1cccc(Cn2nc(-c3nc(-c4ccc(OC(F)(F)F)cc4)no3)nc2C)c1` [Example 100, 5-(5-methyl-1-(3-methylbenzyl)-1H-1,2,4-triazol-3-yl)-3-(4-(trifluoromethoxy)phenyl)-1,2,4-oxadiazole], 5.00 to 6.00. The figure for `COc1cccc(Cn2nc(-c3nc(-c4ccc(OC(F)(F)F)cc4)no3)nc2C)c1` [Example 101, 5-(1-(3-methoxybenzyl)-5-methyl-1H-1,2,4-triazol-3-yl)-3-(4-(trifluoromethoxy)phenyl)-1,2,4-oxadiazole] is 6.00 to 7.00; for `Cc1nc(-c2nc(-c3ccc(OC(F)(F)F)cc3)no2)nn1Cc1cccc(C(F)(F)F)c1` [Example 102, 5-(5-methyl-1-(3-(trifluoromethyl)benzyl)-1H-1,2,4-triazol-3-yl)-3-(4-(trifluoromethoxy)phenyl)-1,2,4-oxadiazole] it is 5.00 to 6.00; for `Cc1nc(-c2nc(-c3ccc(OC(F)(F)F)cc3)no2)nn1Cc1cccc(OC(F)F)c1` [Example 103, 5-(1-(3-(difluoromethoxy)benzyl)-5-methyl-1H-1,2,4-triazol-3-yl)-3-(4-(trifluoromethoxy)phenyl)-1,2,4-oxadiazole] it is 6.00 to 7.00. In the case of `Cc1nc(-c2nc(-c3ccc(OC(F)(F)F)cc3)no2)nn1Cc1cccc(S(N)(=O)=O)c1` [Example 104, 3-((5-methyl-3-(3-(4-(trifluoromethoxy)phenyl)-1,2,4-oxadiazol-5-yl)-1H-1,2,4-triazol-1-yl)methyl)benzenesulfonamide] it was 6.00 to 7.00; in that of `Cc1nc(-c2nc(-c3ccc(OC(F)(F)F)cc3)no2)nn1Cc1ccc(S(N)(=O)=O)cc1` [Example 105, 4-((5-methyl-3-(3-(4-(trifluoromethoxy)phenyl)-1,2,4-oxadiazol-5-yl)-1H-1,2,4-triazol-1-yl)methyl)benzenesulfonamide], 6.00 to 7.00; in that of `Cc1nc(-c2nc(-c3ccc(OC(F)(F)F)cc3)no2)nn1Cc1cccc(S(C)(=O)=O)c1` [Example 106, 5-(5-methyl-1-(3-(methylsulfonyl)benzyl)-1H-1,2,4-triazol-3-yl)-3-(4-(trifluoromethoxy)phenyl)-1,2,4-oxadiazole], greater than 7.00. With `Cc1nc(-c2nc(-c3ccc(OC(F)(F)F)cc3)no2)nn1Cc1cccc(C#N)c1` [Example 107, 3-((5-methyl-3-(3-(4-(trifluoromethoxy)phenyl)-1,2,4-oxadiazol-5-yl)-1H-1,2,4-triazol-1-yl)methyl)benzonitrile], the pIC50 is 6.00 to 7.00. The figure for `Cc1cccc(Cn2nc(-c3nc(-c4ccc(OC(F)(F)F)cc4)no3)nc2C)n1` [Example 108, 5-(5-methyl-1-((6-methylpyridin-2-yl)methyl)-1H-1,2,4-triazol-3-yl)-3-(4-(trifluoromethoxy)phenyl)-1,2,4-oxadiazole] is 5.00 to 6.00; for `Cc1nc(-c2nc(-c3ccc(OC(F)(F)F)cc3)no2)nn1Cc1ccc(C(C)C)cc1` [Example 109, 5-(1-(4-isopropylbenzyl)-5-methyl-1H-1,2,4-triazol-3-yl)-3-(4-(trifluoromethoxy)phenyl)-1,2,4-oxadiazole] it is 6.00 to 7.00. As for `Cc1nc(-c2nc(-c3ccc(OC(F)(F)F)cc3)no2)nn1Cc1cccc2c1cnn2C` [Example 110, 5-(5-methyl-1-((1-methyl-1H-indazol-4-yl)methyl)-1H-1,2,4-triazol-3-yl)-3-(4-(trifluoromethoxy)phenyl)-1,2,4-oxadiazole], the pIC50 was 6.00 to 7.00. With `Cc1nc(-c2nc(-c3ccc(OC(F)(F)F)cc3)no2)nn1Cc1ccc2c(c1)OCO2` [Example 111, 5-(1-(benzo[d][1,3]dioxol-5-ylmethyl)-5-methyl-1H-1,2,4-triazol-3-yl)-3-(4-(trifluoromethoxy)phenyl)-1,2,4-oxadiazole], the pIC50 was 6.00 to 7.00.
